Measurements: patent US5928185A, “Iontophoresis device for the transcutaneous delivery of an active principle such as an anionic oligosaccharide” (Sanofi, priority 1995, dated 1999)

How the values were obtained:
factor Xa = assay: Antifactor Xa activity of the pentasaccharide sodium salt; assay type: biochemical
Experimental: The assay of the pentasaccharide in the receiver compartment was based on investigating its antifactor Xa activity. The assay was carried out either directly on the medium sampled from the receiver compartment or after dilution, using a ROTACHROM HEPARIN 8® assay kit, a complementary buffer for the assay instrument and bovine antithrombin III, these various elements being supplied by the company STAGO, using a HITACHI 717 assay instrument. The calibration curve was established using a "Golden Standard" pentasaccharide solution to which an antifactor Xa activity equal to 13 units per ml was assigned.

[1] = Transdermic passage of sodium pentasaccharide salt by iontophoresis at constant voltage through nude rat skin (Example 1)
Experimental: Study of the transdermic passage of a sodium pentasaccharide salt by iontophoresis at constant voltage.
The operation was carried out in iontophoresis cells of identical structure. Each iontophoresis cell consisted of three coaxial adjacent cylindrical compartments having a cross-sectional area of 2 cm^2, namely, in this order, a donor compartment, a receiver compartment and a back-electrode compartment, these three compartments being each separated from the following one in leak-tight fashion by a piece of nude rat skin (OFA/hr/hr) used as a membrane for studying the transcutaneous diffusion. […] The receiver compartment, having a volume of 10 ml, held physiological saline solution supplemented with 500 ppm of NaN3 and was stirred using a magnetic bar. The back-electrode compartment, which was identical to the donor compartment, held 0.5 ml of a 2% by weight aqueous solution of sodium chloride as well as 500 ppm by weight of NaN3. At its opposite end from the receiver compartment, the donor compartment was equipped with a negative electrode. In the same way as the donor compartment, the back-electrode compartment was equipped with a positive electrode (back electrode).
The rat skin samples had had the subcutaneous tissue removed and had been preserved by freezing at -40° C. until they were mounted in the iontophoresis cell, with the dermic faces turned towards the receiver compartment, after they had been placed for 15 minutes in physiological saline solution supplemented with 500 ppm of NaN3.
For each of the tests which were carried out, four identical iontophoresis cells were started simultaneously. The active exchange surface area was 2 cm^2 for each skin.
A pulsed current generator made it possible to set up an electrical signal of the potentiostatic type between the electrodes of the four cells, mounted in parallel, with a peak voltage equal to 2.2 volts and a duty ratio of 50% (i.e. an average voltage of 1.1 volts) and a frequency of 25 kHz.
The pulsed current produced by the generator was applied for 6 hours, the electrode of the donor compartment of each cell being connected to the negative pole of the said generator, and the back electrodes to the positive pole.
At the end of the said time, an aliquot of the medium contained in the receiver compartment was withdrawn and the quantity of pentasaccharide that had passed through the skin separating the donor and the receiver compartments of each cell was determined by assay. A second sample was taken 24 hours after the start of each experiment, i.e. 18 hours after the electrical signal had stopped.
Five tests 1a to 1e were carried out as follows:
Test 1a: The negative electrode and the positive electrode consisted of a titanium film having a thickness equal to 10 μm. No voltage was applied to the electrodes, in order to determine the passive transcutaneous diffusion.
Test 1b: The negative electrode and the positive electrode consisted of a graphite sheet having a thickness of 60 μm.
Test 1c: The negative electrode and the positive electrode consisted of a titanium film having a thickness equal to 10 μm.
Test 1d to 1e: The negative electrode consisted of a silver film having a thickness of 15 μm, chlorided beforehand on one face in order to contain a silver chloride layer corresponding to 1.8 mAh/cm^2, whereas the positive electrode consisted of a silver film having a thickness of 15 μm, very slightly chlorided on one face (a quantity of silver chloride corresponding to 0.1 mAh/cm^2, the chlorided face of each electrode being on the side adjacent to the rat skin membrane.
In tests Ia to Id, the donor and the receiver compartments of each cell held a 0.06 molar buffer composition based on sodium monohydrogenphosphate and dihydrogenphosphate in equimolar quantities, so as to keep the pH in the said compartments at a value of about 7. In test 1e, no buffer was used.

## O=C(O)C1OC(OC2C(COS(=O)(=O)O)OC(OC3C(C(=O)O)OC(OC4C(COS(=O)(=O)O)OC(O)C(NS(=O)(=O)O)C4O)C(OS(=O)(=O)O)C3O)C(NS(=O)(=O)O)C2OS(=O)(=O)O)C(O)C(O)C1OC1OC(COS(=O)(=O)O)C(O)C(O)C1NS(=O)(=O)O (centres unmarked) [pentasaccharide]
Factor Xa
  antifactor Xa activity: 0.65 "Golden Standard" units per microgram
[1]; Ag/AgCl negative electrodes (reversible)
  quantities of pentasaccharide diffused into the receiver compartment by iontophoresis: increase very greatly
[1]; at 6 hours, test 1a: titanium, 0 V (passive)
  Fraction of active principle used (%): ~ zero
[1]; at 6 hours, test 1b: graphite, 1.1 V
  Fraction of active principle used (%): 0.1%
[1]; at 6 hours, test 1c: titanium, 1.1 V
  Fraction of active principle used (%): 0.08%
[1]; at 6 hours, test 1e: Ag/AgCl, 1.1 V, no buffer
  Fraction of active principle used (%): 2.8%
[1]; at 6 hours, test 1d: Ag/AgCl, 1.1 V, buffer
  Fraction of active principle used (%): 1.4%
[1]; at 24 hours, test 1a: titanium, 0 V (passive)
  Fraction of active principle used (%): ~ zero
[1]; at 24 hours, test 1b: graphite, 1.1 V
  Fraction of active principle used (%): 0.2%
[1]; at 24 hours, test 1c: titanium, 1.1 V
  Fraction of active principle used (%): 0.15%
[1]; at 24 hours, test 1e: Ag/AgCl, 1.1 V, no buffer
  Fraction of active principle used (%): 3.3%
[1]; at 24 hours, test 1d: Ag/AgCl, 1.1 V, buffer
  Fraction of active principle used (%): 1.5%
[1]; irreversible electrodes such as graphite or titanium
  quantities of pentasaccharide diffused into the receiver compartment by iontophoresis: very small and similar to the passive transport
[1]; test 1a: titanium electrodes, 0 V (passive), buffer pH about 7
  Antifactor activity Xa/ml at 6 hours: < 0.1 units per ml
[1]; test 1a: titanium, 0 V (passive)
  Antifactor activity Xa/ml at 24 hours: 0.25 units per ml
[1]; test 1b: graphite electrode, average 1.1 V, buffer
  Antifactor activity Xa/ml at 6 hours: 0.70 units per ml
[1]; test 1b: graphite, 1.1 V, 18 hours after current stopped
  Antifactor activity Xa/ml at 24 hours: 1.13 units per ml
[1]; test 1c: titanium electrode, average 1.1 V, buffer
  Antifactor activity Xa/ml at 6 hours: 0.50 units per ml
[1]; test 1c: titanium, 1.1 V, 18 hours after current stopped
  Antifactor activity Xa/ml at 24 hours: 0.95 units per ml
[1]; test 1e: Ag/AgCl electrode, average 1.1 V, about 0.20 mA/cm^2, no buffer
  Antifactor activity Xa/ml at 6 hours: 18.1 units per ml
[1]; test 1e: Ag/AgCl, 1.1 V, no buffer, 18 hours after current stopped
  Antifactor activity Xa/ml at 24 hours: 21.4 units per ml
[1]; test 1d: Ag/AgCl electrode, average 1.1 V, about 0.20 mA/cm^2, buffer
  Antifactor activity Xa/ml at 6 hours: 9.1 units per ml
[1]; test 1d: Ag/AgCl, 1.1 V, buffer, 18 hours after current stopped
  Antifactor activity Xa/ml at 24 hours: 9.7 units per ml
